From publication PMC3763632, “Radiosynthesis and Radiotracer Properties of a 7-(2-[^18F]Fluoroethoxy)-6-methoxypyrrolidinylquinazoline for Imaging of Phosphodiesterase 10A with PET” (Pharmaceuticals, 2012)

Target: T1, PDE10A (Rattus norvegicus, UniProt Q9QYJ6)
T1 construct: Frozen sagittal brain sections (12 μm) obtained from female SPRD rats (8–10 weeks); from tissue; host or cells: rat brain sections (female SPRD rats)
T1 sequence (Q9QYJ6 1-794): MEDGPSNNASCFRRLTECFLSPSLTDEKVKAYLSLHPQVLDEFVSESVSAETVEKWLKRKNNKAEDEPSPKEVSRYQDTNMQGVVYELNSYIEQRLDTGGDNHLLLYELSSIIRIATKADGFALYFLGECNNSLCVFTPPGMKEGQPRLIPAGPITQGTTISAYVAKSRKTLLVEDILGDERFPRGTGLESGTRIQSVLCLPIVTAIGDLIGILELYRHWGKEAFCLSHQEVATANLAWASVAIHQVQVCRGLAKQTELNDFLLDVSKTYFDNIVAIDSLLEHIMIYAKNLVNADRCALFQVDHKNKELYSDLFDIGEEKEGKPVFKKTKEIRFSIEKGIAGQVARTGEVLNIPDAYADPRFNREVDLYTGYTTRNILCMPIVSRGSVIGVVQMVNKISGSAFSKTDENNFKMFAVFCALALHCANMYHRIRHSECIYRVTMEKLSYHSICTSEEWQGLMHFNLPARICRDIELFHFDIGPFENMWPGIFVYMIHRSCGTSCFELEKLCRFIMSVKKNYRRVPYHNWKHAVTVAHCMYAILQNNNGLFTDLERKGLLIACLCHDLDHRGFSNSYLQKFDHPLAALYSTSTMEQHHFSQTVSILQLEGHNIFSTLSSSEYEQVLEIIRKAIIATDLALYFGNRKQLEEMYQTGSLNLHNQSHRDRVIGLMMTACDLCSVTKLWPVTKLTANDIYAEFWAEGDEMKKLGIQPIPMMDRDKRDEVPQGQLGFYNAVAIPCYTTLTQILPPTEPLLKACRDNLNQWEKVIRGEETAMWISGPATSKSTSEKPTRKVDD
Assay: In vitro autoradiography on sagittal rat brain slices
Type: binding
Conditions: 25 nM [18F]IV
Description: Figure 3 Representative color-coded autoradiographic images of sagittal rat brain slices. […] CP, caudate putamen; NA, nucleus accumbens; OT, olfactory tubercle; Th, thalamus; Hi, hippocampus; SN, substantia nigra; Cb, cerebellum; Co, cortex; OB, olfactory bulb; PN, pontine nuclei.
This pattern corresponds with the immunohistochemical localization of PDE10A in rat brain described in Seeger et al..
Therefore, species-specific patterns of PDE expression have to be considered in the development of PDE10A targeting PET ligands based on the herein reported quinazoline structures. […]
Frozen sagittal brain sections (12 μm) obtained from female SPRD rats (8–10 weeks) were thawed, dried in a stream of cold air, preincubated for 20 min with 50 mM TRIS-HCl, pH 7.4, at room temperature, and dried again. […] After incubation, sections were washed twice for 2 min with 50 mM TRIS-HCl, pH 7.4 at 4 °C, dipped briefly in ice-cold deionized water (5 s), dried in a stream of cold air, and exposed for 17 h to ^18F-sensitive storage phosphor screens, which were analyzed using the BAS-1800 II system (see above).

COc1cc2c(N3CC[C@@H](Oc4cnc5ccccc5n4)C3)ncnc2cc1OCC[18F] [[^18F]IV, (R)-7-(2-[^18F]Fluoroethoxy)-6-methoxy-4-(3-(quinoxalin-2-yloxy)pyrrolidin-1-yl)quinazoline]
binding of [18F]IV on rat brain slices, co-incubation with IV (10 μM IV, 60 min): saturable binding | inhibition of [18F]IV binding on rat brain slices by MP-10 (10 μM MP-10, 60 min): not completely inhibited
